# Source: patent publication US9540392B2, “Thienopyrimidines” (BAYER PHARMA AKTIENGESELLSCHAFT, priority 2012, dated 2017)
# Molecular target: T1, human full-length MKNK1 (Homo sapiens, UniProt Q9BUB5, T385D)
# T1 construct: GST (N); purchased Carna Biosciences 02-145; host or cells: insect cells (baculovirus expression system)
# Assay: MKNK1 kinase high ATP assay (TR-FRET)
# Format: biochemical
# Conditions: 2 mM ATP, after preincubation with MKNK1; read-out: MKNK1 IC50 (MKNK1 high ATP)
# How it was run: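 Compound was preincubated 15 min at 22° C. with MKNK1 in 50 mM HEPES pH 7.5, 5 mM MgCl2, 1.0 mM DTT, then the reaction ran 30 min at 22° C. with 2 mM ATP and 0.06 μM biotinylated peptide (final).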
# T1 sequence (Q9BUB5 1-424 isoform Q9BUB5-2 T344D): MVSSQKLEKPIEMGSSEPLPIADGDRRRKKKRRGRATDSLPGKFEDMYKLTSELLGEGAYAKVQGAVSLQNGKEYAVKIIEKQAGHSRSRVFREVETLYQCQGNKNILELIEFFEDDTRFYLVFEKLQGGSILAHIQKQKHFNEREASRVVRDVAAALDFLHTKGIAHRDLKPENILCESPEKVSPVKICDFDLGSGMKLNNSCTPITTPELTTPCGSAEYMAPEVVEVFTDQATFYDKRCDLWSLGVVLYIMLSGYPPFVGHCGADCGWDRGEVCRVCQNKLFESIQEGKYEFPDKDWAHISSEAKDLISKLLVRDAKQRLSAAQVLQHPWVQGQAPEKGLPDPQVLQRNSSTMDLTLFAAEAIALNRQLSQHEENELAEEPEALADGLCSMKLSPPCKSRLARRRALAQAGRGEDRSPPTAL
row,SMILES,IC50 [nM]
1,"CCOc1cc2[nH]ncc2cc1Nc1ncnc2sc3c(c12)CCC(C(=O)N1CCC(N(C)C)C1)C3 (racemic) [Example 258, [(3RS)-3-(Dimethylamino)pyrrolidin-1-yl]{(7RS)-4-[(6-ethoxy-1H-indazol-5-yl)amino]-5,6,7,8-tetrahydro[1]benzothieno[2,3-d]pyrimidin-7-yl}methanone]",0.4
2,"COCCN(CCOC)C(=O)C1CCc2c(sc3ncnc(Nc4ccc5[nH]ncc5c4)c23)C1 (racemic) [Example 107, (RS)-4-(1H-indazol-5-ylamino)-N,N-bis(2-methoxyethyl)-5,6,7,8-tetrahydro[1]benzothieno[2,3-d]pyrimidine-7-carboxamide]",8.1
3,"CCOC(=O)C1CCc2c(sc3ncnc(Nc4cc5cn[nH]c5cc4Cl)c23)C1 (stereo not shown) [Example 53, Ethyl 4-[(6-chloro-1H-indazol-5-yl)amino]-5,6,7,8-tetrahydro[1]benzothieno[2,3-d]pyrimidine-7-carboxylate]",9
4,"CN(Cc1ccsc1)C(=O)C1CCc2c(sc3ncnc(Nc4ccc5[nH]ncc5c4)c23)C1 (racemic) [Example 162, (RS)-4-(1H-indazol-5-ylamino)-N-methyl-N-(thiophen-3-ylmethyl)-5,6,7,8-tetrahydro[1]benzothieno[2,3-d]pyrimidine-7-carboxamide]",5.3
5,"CC(C)OC(=O)C1CCc2c(sc3ncnc(Nc4ccc5[nH]ncc5c4)c23)C1 (racemic) [Example 74, (RS)-Propan-2-yl 4-(1H-indazol-5-ylamino)-5,6,7,8-tetrahydro[1]benzothieno[2,3-d]pyrimidine-7-carboxylate]",27.6
6,"COc1cc2[nH]ncc2cc1Nc1ncnc2sc3c(c12)CCC(C(=O)N1CCC(C)(C)C1)C3 (racemic) [Example 180, (RS)-(3,3-Dimethylpyrrolidin-1-yl){4-[(6-methoxy-1H-indazol-5-yl)amino]-5,6,7,8-tetrahydro[1]benzothieno[2,3-d]pyrimidin-7-yl}methanone]",0.8
7,"COc1cc2[nH]ncc2cc1Nc1ncnc2sc3c(c12)CCC(C(=O)N1C[C@H](O)[C@@H](O)C1)C3 (mixture of isomers) [Example 244, [(3R,4R)-3,4-Dihydroxypyrrolidin-1-yl]{(7RS)-4-[(6-methoxy-1H-indazol-5-yl)amino]-5,6,7,8-tetrahydro[1]benzothieno[2,3-d]pyrimidin-7-yl}methanone]",0.4
8,"O=C(Nc1ccncc1)C1CCc2c(sc3ncnc(Nc4ccc5[nH]ncc5c4)c23)C1 (racemic) [Example 94, (RS)-4-(1H-indazol-5-ylamino)-N-(pyridin-4-yl)-5,6,7,8-tetrahydro[1]benzothieno[2,3-d]pyrimidine-7-carboxamide]",23.4
9,"Cc1ccccc1NC(=O)C1CCc2c(sc3ncnc(Nc4ccc5[nH]ncc5c4)c23)C1 (stereo not shown) [Example 15, 4-(1H-indazol-5-ylamino)-N-(2-methylphenyl)-5,6,7,8-tetrahydro[1]benzothieno[2,3-d]pyrimidine-7-carboxamide]",3
10,"CN(C)CCN1CCN(C(=O)C2CCc3c(sc4ncnc(Nc5ccc6[nH]ncc6c5)c34)C2)CC1 (racemic) [Example 129, (RS)-{4-[2-(dimethylamino)ethyl]piperazin-1-yl}[4-(1H-indazol-5-ylamino)-5,6,7,8-tetrahydro[1]benzothieno[2,3-d]pyrimidin-7-yl]methanone]",7.7
11,"CCN(C)C(=O)C1CCc2c(sc3ncnc(Nc4cc5cn[nH]c5cc4OC)c23)C1 (racemic) [Example 179, (RS)—N-Ethyl-4-[(6-methoxy-1H-indazol-5-yl)amino]-N-methyl-5,6,7,8-tetrahydro[1]benzothieno[2,3-d]pyrimidine-7-carboxamide]",0.7

# Now from value to molecule:
row,IC50 [nM],SMILES
1,0.5,"COc1cc2[nH]ncc2cc1Nc1ncnc2sc3c(c12)CCC(C(=O)N1CCCCC1)C3 (racemic) [Example 176, (RS)-{4-[(6-Methoxy-1H-indazol-5-yl)amino]-5,6,7,8-tetrahydro[1]benzothieno[2,3-d]pyrimidin-7-yl}(piperidin-1-yl)methanone]"
2,22.6,"O=C(C1CCc2c(sc3ncnc(Nc4ccc5[nH]ncc5c4)c23)C1)N1CCS(=O)(=O)CC1 (racemic) [Example 188, (RS)-(1,1-dioxidothiomorpholin-4-yl)[4-(1H-indazol-5-ylamino)-5,6,7,8-tetrahydro[1]benzothieno[2,3-d]pyrimidin-7-yl]methanone]"
3,15.1,"O=C(C1CCc2c(sc3ncnc(Nc4ccc5[nH]ncc5c4)c23)C1)N1CCN2CCCCC2C1 (racemic) [Example 192, (RS)-[4-(1H-indazol-5-ylamino)-5,6,7,8-tetrahydro[1]benzothieno[2,3-d]pyrimidin-7-yl](octahydro-2H-pyrido[1,2-a]pyrazin-2-yl)methanone]"
4,0.3,"CCOc1cc2[nH]ncc2cc1Nc1ncnc2sc3c(c12)CCC(C(=O)N1CCN(CC2CC2)CC1)C3 (racemic) [Example 247, (RS)-[4-(Cyclopropylmethyl)piperazin-1-yl]{4-[(6-ethoxy-1H-indazol-5-yl)amino]-5,6,7,8-tetrahydro[1]benzothieno[2,3-d]pyrimidin-7-yl}methanone]"
5,0.3,"CCOc1cc2[nH]ncc2cc1Nc1ncnc2sc3c(c12)CCC(C(=O)N(C)CCO)C3 (racemic) [Example 225, (RS)-4-[(6-Ethoxy-1H-indazol-5-yl)amino]-N-(2-hydroxyethyl)-N-methyl-5,6,7,8-tetrahydro[1]benzothieno[2,3-d]pyrimidine-7-carboxamide]"
6,12.4,"CN(Cc1cccn1C)C(=O)C1CCc2c(sc3ncnc(Nc4ccc5[nH]ncc5c4)c23)C1 (racemic) [Example 163, (RS)-4-(1H-indazol-5-ylamino)-N-methyl-N-[(1-methyl-1H-pyrrol-2-yl)methyl]-5,6,7,8-tetrahydro[1]benzothieno[2,3-d]pyrimidine-7-carboxamide]"
7,7.3,"CN(C)C1CCN(C(=O)C2CCc3c(sc4ncnc(Nc5ccc6[nH]ncc6c5)c34)C2)C1 (racemic) [Example 205, (RS)-[3-(dimethylamino)pyrrolidin-1-yl][4-(1H-indazol-5-ylamino)-5,6,7,8-tetrahydro[1]benzothieno[2,3-d]pyrimidin-7-yl]methanone]"
8,11,"O=C(C1CCc2c(sc3ncnc(Nc4ccc5[nH]ncc5c4)c23)C1)N1CCOCC1 (stereo not shown) [Example 47, [4-(1H-Indazol-5-ylamino)-5,6,7,8-tetrahydro[1]benzothieno [2,3-d]pyrimidin-7-yl](morpholin-4-yl)methanone]"
9,0.3,"CCOc1cc2[nH]ncc2cc1Nc1ncnc2sc3c(c12)CCC(C(=O)N1CCOCC1)C3 (racemic) [Example 212, (RS)-{4-[(6-Ethoxy-1H-indazol-5-yl)amino]-5,6,7,8-tetrahydro[1]benzothieno[2,3-d]pyrimidin-7-yl}(morpholin-4-yl)methanone]"
10,5.5,"CN(C)CCN(Cc1ccccc1)C(=O)C1CCc2c(sc3ncnc(Nc4ccc5[nH]ncc5c4)c23)C1 (racemic) [Example 84, (RS)-N-benzyl-N-[2-(dimethylamino)ethyl]-4-(1H-indazol-5-ylamino)-5,6,7,8-tetrahydro[1]benzothieno[2,3-d]pyrimidine-7-carboxamide]"
11,21.7,"CN1CCN(CCNC(=O)C2CCc3c(sc4ncnc(Nc5ccc6[nH]ncc6c5)c34)C2)CC1 (racemic) [Example 144, (RS)-4-(1H-indazol-5-ylamino)-N-[2-(4-methylpiperazin-1-yl)ethyl]-5,6,7,8-tetrahydro[1]benzothieno[2,3-d]pyrimidine-7-carboxamide]"
